# Experimental data taken from publication PMC7265341, “Quantifying CDK inhibitor selectivity in live cells” (Nature Communications, 2020).
# Like-named read-outs stand apart in the source and are kept apart here.
# How the values were obtained:
# CDK1/Cyclin E1 = CDK1/Cyclin E1 (Homo sapiens, UniProt P06493); experiment: NanoBRET live-cell target engagement, CDK1-NanoLuc/Cyclin E1 in HEK-293; type: binding; settings: CDK1/E1, read-out: Inhibition at 10µM (%)
# CDK2/Cyclin E1 = CDK2/Cyclin E1 (Homo sapiens, UniProt P24941); experiment: NanoBRET live-cell target engagement, CDK2-NanoLuc/Cyclin E1 in HEK-293; type: binding; settings: for inhibition at 10 µM: CDK2/E1, read-out: Inhibition at 10µM (%)
# CDK3/Cyclin E1 = CDK3/Cyclin E1 (Homo sapiens, UniProt Q00526); experiment: NanoBRET live-cell target engagement, CDK3-NanoLuc/Cyclin E1 in HEK-293; type: binding; settings: CDK3/E1, read-out: Inhibition at 10µM (%)
# CDK4/Cyclin D1 = CDK4/Cyclin D1 (Homo sapiens, UniProt P11802); experiment: NanoBRET live-cell target engagement, NanoLuc-CDK4/Cyclin D1 in HEK-293; type: binding; settings: CDK4/D1, read-out: Inhibition at 10µM (%)
# CDK5/CDK5R1 = CDK5/CDK5R1 (Homo sapiens, UniProt Q00535); experiment: NanoBRET live-cell target engagement, CDK5-NanoLuc/CDK5R1 in HEK-293; type: binding; settings: CDK5/CDK5R1, read-out: Inhibition at 10µM (%)
# CDK6/Cyclin D1 = CDK6/Cyclin D1 (Homo sapiens, UniProt Q00534); experiment: NanoBRET live-cell target engagement, NanoLuc-CDK6/Cyclin D1 in HEK-293; type: binding; settings: CDK6/D1, read-out: Inhibition at 10µM (%)
# CDK7 = CDK7 (Homo sapiens, UniProt P50613); experiment: NanoBRET live-cell target engagement, NanoLuc-CDK7 in HEK-293; type: binding; settings: CDK7, read-out: Inhibition at 10µM (%)
# CDK8/Cyclin C = CDK8/Cyclin C (Homo sapiens, UniProt P49336); experiment: NanoBRET live-cell target engagement, NanoLuc-CDK8/Cyclin C in HEK-293; type: binding; settings: for IC50: CDK8/C; for inhibition at 10 µM: read-out: Inhibition at 10µM (%), CDK8/C
# CDK9/Cyclin K = CDK9/Cyclin K (Homo sapiens, UniProt P50750); experiment: NanoBRET live-cell target engagement, NanoLuc-CDK9/Cyclin K in HEK-293; type: binding; settings: CDK9/K, read-out: Inhibition at 10µM (%)
# CDK11B/Cyclin L2 = CDK11B/Cyclin L2 (Homo sapiens, UniProt P21127); experiment: NanoBRET live-cell target engagement, CDK11B-NanoLuc/Cyclin L2 in HEK-293; type: binding; settings: read-out: Inhibition at 10µM (%), CDK11b/L2
# CDK12/Cyclin K = CDK12/Cyclin K (Homo sapiens, UniProt Q9NYV4); experiment: NanoBRET live-cell target engagement, CDK12-NanoLuc/Cyclin K in HEK-293; type: binding; settings: read-out: Inhibition at 10µM (%), CDK12/K
# CDK13/Cyclin K = CDK13/Cyclin K (Homo sapiens, UniProt Q14004); experiment: NanoBRET live-cell target engagement, CDK13-NanoLuc/Cyclin K in HEK-293; type: binding; settings: CDK13/K, read-out: Inhibition at 10µM (%)
# CDK14/Cyclin Y = CDK14/Cyclin Y (Homo sapiens, UniProt O94921); experiment: NanoBRET live-cell target engagement, CDK14-NanoLuc/Cyclin Y in HEK-293; type: binding; settings: read-out: Inhibition at 10µM (%), CDK14/Y
# CDK15/Cyclin Y = CDK15/Cyclin Y (Homo sapiens, UniProt Q96Q40); experiment: NanoBRET live-cell target engagement, NanoLuc-CDK15/Cyclin Y in HEK-293; type: binding; settings: read-out: Inhibition at 10µM (%), CDK15/Y
# CDK16/Cyclin Y = CDK16/Cyclin Y (Homo sapiens, UniProt Q00536); experiment: NanoBRET live-cell target engagement, CDK16-NanoLuc/Cyclin Y in HEK-293; type: binding; settings: read-out: Inhibition at 10µM (%), CDK16/Y
# CDK17/Cyclin Y = CDK17/Cyclin Y (Homo sapiens, UniProt Q00537); experiment: NanoBRET live-cell target engagement, CDK17-NanoLuc/Cyclin Y in HEK-293; type: binding; settings: read-out: Inhibition at 10µM (%), CDK17/Y
# CDK18/Cyclin Y = CDK18/Cyclin Y (Homo sapiens, UniProt Q07002); experiment: NanoBRET live-cell target engagement, CDK18-NanoLuc/Cyclin Y in HEK-293; type: binding; settings: read-out: Inhibition at 10µM (%), CDK18/Y
# CDK20/Cyclin H = CDK20/Cyclin H (Homo sapiens, UniProt Q8IZL9); experiment: NanoBRET live-cell target engagement, NanoLuc-CDK20/Cyclin H in HEK-293; type: binding; settings: read-out: Inhibition at 10µM (%), CDK20/H
# CDK19/Cyclin C = CDK19/Cyclin C (Homo sapiens, UniProt Q9BWU1); experiment: NanoBRET live-cell target engagement, NanoLuc-CDK19/Cyclin C in HEK-293; settings: for IC50: CDK19/C; for inhibition at 10 µM: read-out: Inhibition at 10µM (%), CDK19/C
# CDK10/Cyclin L2 = CDK10/Cyclin L2 (Homo sapiens, UniProt Q15131); experiment: NanoBRET live-cell target engagement, CDK10-NanoLuc/Cyclin L2 in HEK-293; settings: read-out: Inhibition at 10µM (%), CDK10/L2
# [1] = LOG10([CCT251545 analog]) (LOG10(µM)) 0.045757
# [2] = LOG10([CCT251545 analog]) (LOG10(µM)) 0.522879
# [3] = LOG10([CCT251545 analog]) (LOG10(µM)) 1
# [4] = LOG10([CCT251545 analog]) (LOG10(µM)) -0.43136
# [5] = LOG10([CCT251545 analog]) (LOG10(µM)) -0.90849
# [6] = LOG10([CCT251545 analog]) (LOG10(µM)) -1.38561
# [7] = LOG10([CCT251545 analog]) (LOG10(µM)) -1.86273
# [8] = LOG10([CCT251545 analog]) (LOG10(µM)) -2.33985
# [9] = LOG10([CCT251545 analog]) (LOG10(µM)) -2.81697
# [10] = LOG10([CCT251545 analog]) (LOG10(µM)) -3.29409
# [11] = LOG10([CCT251545 analog]) (LOG10(µM)) -3.77121
# [12] = IC50 for CDK/cyclin complexes, live HEK-293, 2 h, mean ± S.E.M. (n=3) or mean (n=2)
# CDK17/Cyclin Y, sequence (Q00537 whole entry): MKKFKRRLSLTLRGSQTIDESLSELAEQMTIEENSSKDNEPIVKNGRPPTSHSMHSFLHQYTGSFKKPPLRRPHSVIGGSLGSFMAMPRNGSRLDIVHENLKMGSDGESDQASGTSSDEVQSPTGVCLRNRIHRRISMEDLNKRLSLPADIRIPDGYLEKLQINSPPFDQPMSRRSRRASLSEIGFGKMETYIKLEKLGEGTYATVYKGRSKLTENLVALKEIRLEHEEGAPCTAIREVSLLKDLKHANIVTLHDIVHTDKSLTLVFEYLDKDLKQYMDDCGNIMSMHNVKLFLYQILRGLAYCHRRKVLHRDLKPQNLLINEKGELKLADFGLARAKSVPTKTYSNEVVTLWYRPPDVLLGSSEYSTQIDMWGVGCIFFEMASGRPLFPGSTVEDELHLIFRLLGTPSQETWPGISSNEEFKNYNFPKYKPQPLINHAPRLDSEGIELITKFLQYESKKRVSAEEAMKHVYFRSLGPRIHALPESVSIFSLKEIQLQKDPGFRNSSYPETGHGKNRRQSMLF
# CDK17/Cyclin Y, sequence (Q8ND76 whole entry partner): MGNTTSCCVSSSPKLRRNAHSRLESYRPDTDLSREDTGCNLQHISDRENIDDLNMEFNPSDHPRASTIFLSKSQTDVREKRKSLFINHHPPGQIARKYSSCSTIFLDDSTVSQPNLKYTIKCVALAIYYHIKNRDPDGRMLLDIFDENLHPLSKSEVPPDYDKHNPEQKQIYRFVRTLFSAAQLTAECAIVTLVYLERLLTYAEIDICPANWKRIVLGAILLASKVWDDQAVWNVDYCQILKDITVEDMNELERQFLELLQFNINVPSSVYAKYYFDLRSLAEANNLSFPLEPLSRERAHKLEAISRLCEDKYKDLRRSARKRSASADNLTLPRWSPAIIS
# CDK3/Cyclin E1, sequence (Q00526 whole entry): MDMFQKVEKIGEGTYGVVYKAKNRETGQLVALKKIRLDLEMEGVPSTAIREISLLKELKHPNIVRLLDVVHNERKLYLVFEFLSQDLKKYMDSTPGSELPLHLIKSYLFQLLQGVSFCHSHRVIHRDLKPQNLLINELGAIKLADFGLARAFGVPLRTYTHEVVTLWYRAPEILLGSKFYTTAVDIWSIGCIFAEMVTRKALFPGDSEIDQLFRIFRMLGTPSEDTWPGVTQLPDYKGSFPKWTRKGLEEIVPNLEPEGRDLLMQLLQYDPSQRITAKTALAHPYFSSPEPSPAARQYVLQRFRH
# CDK3/Cyclin E1, sequence (P24864 whole entry partner): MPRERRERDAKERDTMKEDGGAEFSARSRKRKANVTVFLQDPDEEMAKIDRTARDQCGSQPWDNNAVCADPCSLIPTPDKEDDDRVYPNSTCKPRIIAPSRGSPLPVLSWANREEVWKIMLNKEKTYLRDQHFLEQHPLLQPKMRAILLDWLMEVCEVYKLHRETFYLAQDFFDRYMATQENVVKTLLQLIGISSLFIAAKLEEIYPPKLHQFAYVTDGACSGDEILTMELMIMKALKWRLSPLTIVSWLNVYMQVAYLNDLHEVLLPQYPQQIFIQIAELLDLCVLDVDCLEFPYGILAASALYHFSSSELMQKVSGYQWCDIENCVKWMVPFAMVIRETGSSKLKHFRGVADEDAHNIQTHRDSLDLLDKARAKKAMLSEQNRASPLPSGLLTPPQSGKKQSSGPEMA
# CDK12/Cyclin K, sequence (Q9NYV4 1-1481 isoform Q9NYV4-2): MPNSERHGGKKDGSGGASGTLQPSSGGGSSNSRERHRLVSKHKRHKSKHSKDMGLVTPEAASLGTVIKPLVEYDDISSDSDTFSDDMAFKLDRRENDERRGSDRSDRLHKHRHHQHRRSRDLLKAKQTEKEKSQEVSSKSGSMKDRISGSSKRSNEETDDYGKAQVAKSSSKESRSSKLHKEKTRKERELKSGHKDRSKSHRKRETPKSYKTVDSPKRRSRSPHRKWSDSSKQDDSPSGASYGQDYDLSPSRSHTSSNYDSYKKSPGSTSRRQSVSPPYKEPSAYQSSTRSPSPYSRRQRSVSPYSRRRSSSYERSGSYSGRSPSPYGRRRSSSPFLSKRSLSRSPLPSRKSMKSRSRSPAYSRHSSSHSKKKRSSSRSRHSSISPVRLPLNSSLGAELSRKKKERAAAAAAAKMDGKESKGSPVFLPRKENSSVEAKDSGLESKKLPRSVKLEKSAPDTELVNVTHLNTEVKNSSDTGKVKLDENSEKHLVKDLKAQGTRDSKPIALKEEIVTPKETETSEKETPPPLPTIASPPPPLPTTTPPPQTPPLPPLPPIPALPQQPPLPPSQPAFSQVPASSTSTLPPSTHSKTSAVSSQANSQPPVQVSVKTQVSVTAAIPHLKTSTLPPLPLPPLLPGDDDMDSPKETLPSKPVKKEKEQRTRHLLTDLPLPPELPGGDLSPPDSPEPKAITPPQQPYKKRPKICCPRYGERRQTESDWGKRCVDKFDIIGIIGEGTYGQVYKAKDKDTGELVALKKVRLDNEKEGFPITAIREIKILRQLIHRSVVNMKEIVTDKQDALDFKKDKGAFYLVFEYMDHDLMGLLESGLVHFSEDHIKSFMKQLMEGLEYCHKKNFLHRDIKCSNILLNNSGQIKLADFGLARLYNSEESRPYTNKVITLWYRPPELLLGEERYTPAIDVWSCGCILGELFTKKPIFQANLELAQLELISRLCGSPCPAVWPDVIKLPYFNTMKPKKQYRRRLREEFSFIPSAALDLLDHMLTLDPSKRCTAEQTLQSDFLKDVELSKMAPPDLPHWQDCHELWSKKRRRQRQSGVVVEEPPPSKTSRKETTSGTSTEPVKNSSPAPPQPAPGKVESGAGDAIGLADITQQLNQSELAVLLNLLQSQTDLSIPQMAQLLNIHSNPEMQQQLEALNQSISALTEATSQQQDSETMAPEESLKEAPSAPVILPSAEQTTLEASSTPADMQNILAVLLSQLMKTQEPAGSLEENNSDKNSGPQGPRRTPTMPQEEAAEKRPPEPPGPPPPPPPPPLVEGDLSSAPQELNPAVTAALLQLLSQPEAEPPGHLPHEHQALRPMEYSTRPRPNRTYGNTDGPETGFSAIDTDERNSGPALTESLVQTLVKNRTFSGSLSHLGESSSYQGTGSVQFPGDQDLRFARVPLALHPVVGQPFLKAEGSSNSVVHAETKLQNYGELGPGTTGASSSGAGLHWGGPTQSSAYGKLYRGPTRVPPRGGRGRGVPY
# CDK12/Cyclin K, sequence (O75909 whole entry partner): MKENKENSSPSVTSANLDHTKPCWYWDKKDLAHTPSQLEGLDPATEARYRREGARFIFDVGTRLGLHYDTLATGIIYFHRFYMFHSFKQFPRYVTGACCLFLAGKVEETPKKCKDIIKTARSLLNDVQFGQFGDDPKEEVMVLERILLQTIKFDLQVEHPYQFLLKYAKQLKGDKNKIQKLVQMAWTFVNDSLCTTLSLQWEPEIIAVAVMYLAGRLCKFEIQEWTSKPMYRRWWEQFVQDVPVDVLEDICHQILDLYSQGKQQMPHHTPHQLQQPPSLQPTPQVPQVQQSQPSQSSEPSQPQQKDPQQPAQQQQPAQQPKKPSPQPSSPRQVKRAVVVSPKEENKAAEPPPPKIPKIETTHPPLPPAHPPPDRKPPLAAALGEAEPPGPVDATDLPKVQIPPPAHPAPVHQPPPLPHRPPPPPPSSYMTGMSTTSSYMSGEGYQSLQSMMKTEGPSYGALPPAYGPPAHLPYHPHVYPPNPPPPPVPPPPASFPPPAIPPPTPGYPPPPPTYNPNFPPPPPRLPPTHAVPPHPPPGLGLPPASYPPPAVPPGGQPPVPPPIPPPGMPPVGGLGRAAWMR
# CDK11B/Cyclin L2, sequence (P21127 1-782 isoform P21127-2): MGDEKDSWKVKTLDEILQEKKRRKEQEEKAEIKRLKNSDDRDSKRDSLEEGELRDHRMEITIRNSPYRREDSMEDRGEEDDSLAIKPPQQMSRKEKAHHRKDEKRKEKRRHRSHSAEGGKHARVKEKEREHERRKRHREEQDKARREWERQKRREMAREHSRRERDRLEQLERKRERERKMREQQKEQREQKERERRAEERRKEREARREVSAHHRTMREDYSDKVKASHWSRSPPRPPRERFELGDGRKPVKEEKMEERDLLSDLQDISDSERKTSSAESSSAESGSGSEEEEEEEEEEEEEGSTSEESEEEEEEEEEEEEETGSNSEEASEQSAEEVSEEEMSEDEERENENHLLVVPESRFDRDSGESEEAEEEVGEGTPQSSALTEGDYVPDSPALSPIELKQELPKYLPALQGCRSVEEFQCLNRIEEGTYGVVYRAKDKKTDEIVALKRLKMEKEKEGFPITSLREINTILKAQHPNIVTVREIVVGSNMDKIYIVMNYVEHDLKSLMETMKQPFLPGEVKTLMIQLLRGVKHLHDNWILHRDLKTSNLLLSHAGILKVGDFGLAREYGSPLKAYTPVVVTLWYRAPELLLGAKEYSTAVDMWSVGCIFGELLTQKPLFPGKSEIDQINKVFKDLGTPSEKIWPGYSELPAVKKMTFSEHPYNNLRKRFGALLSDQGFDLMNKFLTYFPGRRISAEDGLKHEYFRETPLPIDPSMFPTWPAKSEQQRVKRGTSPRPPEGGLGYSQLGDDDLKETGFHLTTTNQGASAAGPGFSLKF
# CDK10/Cyclin L2, sequence (Q15131 whole entry): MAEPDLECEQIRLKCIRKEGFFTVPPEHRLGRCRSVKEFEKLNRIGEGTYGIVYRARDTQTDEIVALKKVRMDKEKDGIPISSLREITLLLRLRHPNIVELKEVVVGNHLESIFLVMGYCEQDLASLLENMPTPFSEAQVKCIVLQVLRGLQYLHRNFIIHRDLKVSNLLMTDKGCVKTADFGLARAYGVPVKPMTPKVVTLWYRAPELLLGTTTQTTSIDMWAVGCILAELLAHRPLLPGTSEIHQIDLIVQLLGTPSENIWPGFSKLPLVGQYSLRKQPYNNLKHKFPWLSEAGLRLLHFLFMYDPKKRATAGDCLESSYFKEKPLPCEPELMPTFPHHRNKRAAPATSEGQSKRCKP
smiles,measurement,setting,value
COC1CN(C(=O)c2ccc3c(N)ncc(-c4ccc(-c5cnn(C)c5)cc4)c3n2)C1 [CCT251545 analog],inhibition at 10 µM,CDK1/Cyclin E1; average,16.7%
same,inhibition at 10 µM,CDK1/Cyclin E1; experiment 1,19.7%
same,inhibition at 10 µM,CDK1/Cyclin E1; experiment 2,13.7%
same,inhibition at 10 µM,CDK2/Cyclin E1; average,-18.6%
same,inhibition at 10 µM,CDK2/Cyclin E1; experiment 1,-37.1%
same,inhibition at 10 µM,CDK2/Cyclin E1; experiment 2,-0.0714%
same,CDK2 Occupancy (%),CDK2/Cyclin E1; [1],0.4583%
same,CDK2 Occupancy (%),CDK2/Cyclin E1; [2],13.0609%
same,CDK2 Occupancy (%),CDK2/Cyclin E1; [3],32.3087%
same,CDK2 Occupancy (%),CDK2/Cyclin E1; [4],6.187%
same,CDK2 Occupancy (%),CDK2/Cyclin E1; [5],0%
same,CDK2 Occupancy (%),CDK2/Cyclin E1; [6],0.6874%
same,CDK2 Occupancy (%),CDK2/Cyclin E1; [7],13.5192%
same,CDK2 Occupancy (%),CDK2/Cyclin E1; [8],9.853%
same,CDK2 Occupancy (%),CDK2/Cyclin E1; [9],9.166%
same,CDK2 Occupancy (%),CDK2/Cyclin E1; [10],4.812%
same,CDK2 Occupancy (%),CDK2/Cyclin E1; [11],2.291%
same,inhibition at 10 µM,CDK3/Cyclin E1; average,0.5%
same,inhibition at 10 µM,CDK3/Cyclin E1; experiment 1,3.3%
same,inhibition at 10 µM,CDK3/Cyclin E1; experiment 2,-2.3%
same,inhibition at 10 µM,CDK4/Cyclin D1; average,12.4%
same,inhibition at 10 µM,CDK4/Cyclin D1; experiment 1,11.6%
same,inhibition at 10 µM,CDK4/Cyclin D1; experiment 2,13.1%
same,inhibition at 10 µM,CDK5/CDK5R1; average,16.2%
same,inhibition at 10 µM,CDK5/CDK5R1; experiment 1,17.8%
same,inhibition at 10 µM,CDK5/CDK5R1; experiment 2,14.5%
same,inhibition at 10 µM,CDK6/Cyclin D1; average,17.9%
same,inhibition at 10 µM,CDK6/Cyclin D1; experiment 1,15.1%
same,inhibition at 10 µM,CDK6/Cyclin D1; experiment 2,20.8%
same,inhibition at 10 µM,CDK7; average,9.4%
same,inhibition at 10 µM,CDK7; experiment 1,11.5%
same,inhibition at 10 µM,CDK7; experiment 2,7.3%
same,IC50,"CDK8/Cyclin C; IC50 (nM), experiment 1",2.6 nM
same,IC50,"CDK8/Cyclin C; IC50 (nM), experiment 2",2 nM
same,IC50,"CDK8/Cyclin C; IC50 (nM), experiment 3",12 nM
same,IC50,CDK8/Cyclin C; [12],6 nM
same,CDK8 Occupancy (%),CDK8/Cyclin C; [1],92.3464%
same,CDK8 Occupancy (%),CDK8/Cyclin C; [2],91.9478%
same,CDK8 Occupancy (%),CDK8/Cyclin C; [3],84.2411%
same,CDK8 Occupancy (%),CDK8/Cyclin C; [4],91.0176%
same,CDK8 Occupancy (%),CDK8/Cyclin C; [5],91.5491%
same,CDK8 Occupancy (%),CDK8/Cyclin C; [6],90.619%
same,CDK8 Occupancy (%),CDK8/Cyclin C; [7],85.7027%
same,CDK8 Occupancy (%),CDK8/Cyclin C; [8],65.2404%
same,CDK8 Occupancy (%),CDK8/Cyclin C; [9],51.023%
same,CDK8 Occupancy (%),CDK8/Cyclin C; [10],25.2458%
same,CDK8 Occupancy (%),CDK8/Cyclin C; [11],19.9309%
same,inhibition at 10 µM,CDK8/Cyclin C; average,96%
same,inhibition at 10 µM,CDK8/Cyclin C; experiment 1,95%
same,inhibition at 10 µM,CDK8/Cyclin C; experiment 2,96.9%
same,inhibition at 10 µM,CDK9/Cyclin K; average,7.2%
same,inhibition at 10 µM,CDK9/Cyclin K; experiment 1,6.8%
same,inhibition at 10 µM,CDK9/Cyclin K; experiment 2,7.5%
same,inhibition at 10 µM,CDK11B/Cyclin L2; average,0.563%
same,inhibition at 10 µM,CDK11B/Cyclin L2; experiment 1,2.1%
same,inhibition at 10 µM,CDK11B/Cyclin L2; experiment 2,-1%
same,inhibition at 10 µM,CDK12/Cyclin K; average,1.9%
same,inhibition at 10 µM,CDK12/Cyclin K; experiment 1,5.9%
same,inhibition at 10 µM,CDK12/Cyclin K; experiment 2,-2.2%
same,inhibition at 10 µM,CDK13/Cyclin K; average,6.6%
same,inhibition at 10 µM,CDK13/Cyclin K; experiment 1,6.4%
same,inhibition at 10 µM,CDK13/Cyclin K; experiment 2,6.7%
same,inhibition at 10 µM,CDK14/Cyclin Y; average,-6.1%
same,inhibition at 10 µM,CDK14/Cyclin Y; experiment 1,-1.1%
same,inhibition at 10 µM,CDK14/Cyclin Y; experiment 2,-11%
same,inhibition at 10 µM,CDK15/Cyclin Y; average,-9.7%
same,inhibition at 10 µM,CDK15/Cyclin Y; experiment 1,-3.1%
same,inhibition at 10 µM,CDK15/Cyclin Y; experiment 2,-16.3%
same,inhibition at 10 µM,CDK16/Cyclin Y; experiment 1,6.3%
same,inhibition at 10 µM,CDK16/Cyclin Y; experiment 2,1.1%
same,inhibition at 10 µM,CDK17/Cyclin Y; average,11.3%
same,inhibition at 10 µM,CDK17/Cyclin Y; experiment 1,8.9%
same,inhibition at 10 µM,CDK17/Cyclin Y; experiment 2,13.7%
same,inhibition at 10 µM,CDK18/Cyclin Y; average,0.4%
same,inhibition at 10 µM,CDK18/Cyclin Y; experiment 1,-7.3%
same,inhibition at 10 µM,CDK18/Cyclin Y; experiment 2,8.1%
same,inhibition at 10 µM,CDK20/Cyclin H; experiment 1,12.7%
same,inhibition at 10 µM,CDK20/Cyclin H; experiment 2,4.1%
same,IC50,"CDK19/Cyclin C; IC50 (nM), experiment 1",9 nM
same,IC50,"CDK19/Cyclin C; IC50 (nM), experiment 2",3 nM
same,IC50,"CDK19/Cyclin C; IC50 (nM), experiment 3",17 nM
same,IC50,CDK19/Cyclin C; [12],10 nM
same,CDK19 occupancy (%),CDK19/Cyclin C; [1],84.8277%
same,CDK19 occupancy (%),CDK19/Cyclin C; [2],83.6158%
same,CDK19 occupancy (%),CDK19/Cyclin C; [3],72.7094%
same,CDK19 occupancy (%),CDK19/Cyclin C; [4],89.9173%
same,CDK19 occupancy (%),CDK19/Cyclin C; [5],87.736%
same,CDK19 occupancy (%),CDK19/Cyclin C; [6],82.404%
same,CDK19 occupancy (%),CDK19/Cyclin C; [7],73.4365%
same,CDK19 occupancy (%),CDK19/Cyclin C; [8],46.7764%
same,CDK19 occupancy (%),CDK19/Cyclin C; [9],31.7498%
same,CDK19 occupancy (%),CDK19/Cyclin C; [10],15.7537%
same,CDK19 occupancy (%),CDK19/Cyclin C; [11],2.424%
same,inhibition at 10 µM,CDK19/Cyclin C; average,92.3%
same,inhibition at 10 µM,CDK19/Cyclin C; experiment 1,93.4%
same,inhibition at 10 µM,CDK19/Cyclin C; experiment 2,91.3%
same,inhibition at 10 µM,CDK10/Cyclin L2; average,-11.6%
same,inhibition at 10 µM,CDK10/Cyclin L2; experiment 1,-2.4%
same,inhibition at 10 µM,CDK10/Cyclin L2; experiment 2,-20.8%
